{
  "source": "ChEMBL document CHEMBL3244262",
  "about": "“A Fujita--Ban structure--activity analysis of 44 steroids” (1978)",
  "data": [
    {"test_system": "Rattus norvegicus", "assay": "Glucocorticoid activity in sc dosed bilaterally adrenalectomized rat assessed as glycogen deposition in liver administered for 5 days relative to cortisol", "format": "functional", "values": [
      {"smiles": "CC(=O)[C@H]1CC[C@H]2[C@@H]3C[C@H](F)C4=CC(=O)CC[C@]4(C)[C@H]3C(=O)C[C@]12C", "log(activity)": -1.15},
      {"smiles": "CC(=O)[C@@]1(O)CC[C@H]2[C@@H]3C[C@H](C)C4=CC(=O)CC[C@]4(C)[C@H]3[C@@H](O)C[C@@]21C", "log(activity)": 0.36},
      {"smiles": "CC(=O)[C@H]1CC[C@H]2[C@@H]3CCC4=CC(=O)[C@H](C)C[C@]4(C)[C@@]3(F)[C@@H](O)C[C@]12C", "log(activity)": -0.28},
      {"smiles": "CC(=O)OCC(=O)[C@@]1(O)CC[C@H]2[C@@H]3C[C@H](C)C4=CC(=O)CC[C@]4(C)[C@H]3C(=O)C[C@@]21C", "log(activity)": -0.1},
      {"smiles": "C[C@]12C=CC(=O)C=C1CC[C@@H]1[C@@H]2[C@@H](O)C[C@@]2(C)[C@H]1CC[C@]2(O)C(=O)CO", "note": "[PREDNISOLONE]", "log(activity)": 0.43},
      {"smiles": "CC(=O)[C@H]1CC[C@H]2[C@@H]3C[C@H](F)C4=CC(=O)CC[C@]4(C)[C@@]3(F)[C@@H](O)C[C@]12C", "log(activity)": 0.06},
      {"smiles": "C[C@]12CCC(=O)C=C1CC[C@H]1[C@@H]3CC[C@](O)(C(=O)CO)[C@@]3(C)C[C@H](O)[C@@]12F", "note": "[FLUDROCORTISONE]", "log(activity)": 0.9},
      {"smiles": "CC(=O)[C@@]1(O)CC[C@H]2[C@@H]3CCC4=CC(=O)[C@H](C)C[C@]4(C)[C@@]3(F)[C@@H](O)C[C@@]21C", "log(activity)": -0.11},
      {"smiles": "C[C@]12CC(=O)[C@H]3[C@@H](CCC4=CC(=O)CC[C@@]43C)[C@@H]1CC[C@@H]2C(=O)CO", "log(activity)": -0.31},
      {"smiles": "C[C@]12CCC(=O)C=C1C=C[C@@H]1[C@@H]2[C@@H](O)C[C@@]2(C)[C@H]1CC[C@]2(O)C(=O)CO", "log(activity)": -0.15},
      {"smiles": "C[C@]12C=CC(=O)C=C1C=C[C@@H]1[C@@H]2[C@@H](O)C[C@@]2(C)[C@H]1CC[C@]2(O)C(=O)CO", "log(activity)": 0.08},
      {"smiles": "C[C@]12CCC(=O)C=C1CC[C@@H]1[C@@H]2C(=O)C[C@@]2(C)[C@H]1CC[C@]2(O)C(=O)CO", "note": "[CORTISONE]", "log(activity)": -0.46},
      {"smiles": "CC(=O)[C@@]1(O)[C@H](O)C[C@H]2[C@@H]3CCC4=CC(=O)C=C[C@]4(C)[C@@]3(F)[C@@H](O)C[C@@]21C", "log(activity)": 0.93},
      {"smiles": "CC(=O)C1(C(C)=O)CC[C@H]2[C@@H]3CCC4=CC(=O)CC[C@]4(C)[C@@]3(F)[C@@H](O)C[C@@]21C", "log(activity)": -0.7},
      {"smiles": "C[C@H]1C[C@H]2[C@@H]3CC[C@](O)(C(=O)CO)[C@@]3(C)C[C@H](O)[C@]2(F)[C@@]2(C)C=CC(=O)C=C12", "log(activity)": 1.15},
      {"smiles": "C[C@]12CCC(=O)C=C1CC[C@H]1[C@@H]3C[C@@H](O)[C@](O)(C(=O)CO)[C@@]3(C)C[C@H](O)[C@@]12F", "log(activity)": 0.53},
      {"smiles": "CC(=O)[C@H]1[C@H](O)C[C@H]2[C@@H]3CCC4=CC(=O)CC[C@]4(C)[C@@]3(F)[C@@H](O)C[C@@]21C", "log(activity)": -1.3},
      {"smiles": "CC(=O)[C@H]1CC[C@H]2[C@@H]3C[C@H](C)C4=CC(=O)CC[C@]4(C)[C@H]3C(=O)C[C@]12C", "log(activity)": 0.12},
      {"smiles": "CC(=O)[C@H]1CC[C@H]2[C@@H]3CCC4=CC(=O)[C@H](C)C[C@]4(C)[C@@]3(F)C(=O)C[C@]12C", "log(activity)": -0.01},
      {"smiles": "C[C@H]1C[C@@H]2[C@H]([C@@H](O)C[C@@]3(C)[C@H]2CC[C@]3(O)C(=O)CO)[C@@]2(C)CCC(=O)C=C12", "log(activity)": 0.2},
      {"smiles": "C[C@]12C=CC(=O)C=C1CC[C@H]1[C@@H]3C[C@@H](O)[C@](O)(C(=O)CO)[C@@]3(C)C[C@H](O)[C@@]12F", "note": "[TRIAMCINOLONE]", "log(activity)": 1.03},
      {"smiles": "C[C@H]1C[C@@H]2[C@H]([C@@H](O)C[C@@]3(C)[C@H]2CC[C@]3(O)C(=O)CF)[C@@]2(C)CCC(=O)C=C12", "log(activity)": 0.29},
      {"smiles": "C[C@]12C=CC(=O)C=C1CC[C@@H]1[C@@H]2C(=O)C[C@@]2(C)[C@H]1CC[C@]2(O)C(=O)CO", "note": "[PREDNISONE]", "log(activity)": 0.32},
      {"smiles": "C[C@]12CCC(=O)C=C1CC[C@@H]1[C@@H]2[C@@H](O)C[C@@]2(C)[C@H]1CC[C@]2(O)C(=O)CO", "note": "[HYDROCORTISONE]", "log(activity)": 0},
      {"smiles": "CC(=O)[C@H]1CC[C@H]2[C@@H]3CCC4=CC(=O)CC[C@]4(C)[C@@]3(F)[C@@H](O)C[C@]12C", "log(activity)": -1.3},
      {"smiles": "C[C@]12C[C@H](O)[C@H]3[C@@H](CCC4=CC(=O)CC[C@@]43C)[C@@H]1CC[C@@H]2C(=O)CO", "note": "[CORTICOSTERONE]", "log(activity)": -0.55},
      {"smiles": "C[C@H]1C[C@@H]2[C@H]([C@@H](O)C[C@@]3(C)[C@H]2CC[C@]3(O)C(=O)CF)[C@@]2(C)C=CC(=O)C=C12", "log(activity)": 0.2},
      {"smiles": "C[C@@H]1C[C@H]2[C@@H]3C[C@H](F)C4=CC(=O)CC[C@]4(C)[C@H]3CC[C@]2(C)[C@@]1(O)C(=O)CO", "log(activity)": -0.6},
      {"smiles": "C[C@@H]1C[C@@]2(C)C(=CC1=O)CC[C@@H]1[C@@H]2[C@@H](O)C[C@@]2(C)[C@H]1CC[C@]2(O)C(=O)CO", "log(activity)": 0.64},
      {"smiles": "CC(=O)[C@H]1[C@H](C)C[C@H]2[C@@H]3CCC4=CC(=O)CC[C@]4(C)[C@@]3(F)C(=O)C[C@@]21C", "log(activity)": -0.11},
      {"smiles": "CC(=O)[C@H]1CC[C@H]2[C@@H]3C[C@H](C)C4=CC(=O)CC[C@]4(C)[C@@]3(F)[C@@H](O)C[C@]12C", "log(activity)": 0.34}
    ]}
  ]
}
